Assay results as given in patent US12447171B2 (CELGENE QUANTICEL RESEARCH, INC., priority 2019, dated 2025).
Peptide text beside a SMILES is read from it. * marks the point of attachment. Cbz = O=C(OCc1ccccc1)*; CH2F = FC*

Experiments:
[1] = tested on: CD11b, CD14, and CD86 surface marker expression; experiment: Flow cytometry of differentiation markers in AML cell lines; format: cell-based
Description: FACS samples were acquired using BD FACSCanto II. Cell viability was also examined by FACS analysis with Fixable Viability dye 780 (Thermofisher Scientific, Waltham, MA) according to the manufacturer's instructions. Briefly, 10^5 cells were seeded in U bottom 96 well plate, next day treated with 9 doses of CC-90011 (started from 10 uM, 3-fold dilution down), cells were incubated at 37° C. for 6 days and harvested for staining. Cells were washed once with DPBS and stained with 1×FVS780 and washed twice with staining buffer. The samples were stained with 1:200 dilution surface antibodies. Results were then analyzed with FlowJo V10 software (TreeStar Inc., Ashland, OR).

[2] = tested on: 22 AML cell lines; experiment: Cell viability assay, single agents and 5-azacytidine-venetoclax combination, AML cell line panel; details: number of 22 AML cell lines
[3] = tested on: BaF-FLT3(WT); experiment: Cell viability assay (Cell Titer-Glo), BaF3 cells expressing FLT3; format: cell-based; details: Mus musculus
[4] = tested on: BaF-FLT3-ITD; experiment: as above; format: cell-based; details: Mus musculus
[5] = tested on: BaF-FLT3(D835Y); experiment: as above; format: cell-based; details: Mus musculus
[6] = tested on: MOLM-13 xenograft model; experiment: Disseminated MOLM-13 xenograft survival study; format: in vivo, mice; details: MOLM-13, NOD/SCID mice; single agent PO qd×21: midostaurin 100 mg/kg, gilteritinib 4 mg/kg, venetoclax 100 mg/kg; vehicle=19 days
Description: (§1) LEED models oral administration of AZA, while HELD models intravenous or subcutaneous administration of AZA.
The animals were fed ad libitum water (reverse osmosis, 1 ppm Cl), and NIH 31 Modified and Irradiated Lab Diet® consisting of 18.0% crude protein, 5.0% crude fat, and 5.0% crude fiber. The mice were housed on irradiated Enrich-o'cobs™ Laboratory Animal Bedding in static microisolators on a 12-hour light cycle at 20-22° C. (68-72° F.) and 40-60% humidity.
(§2) On each day of dosing, an appropriate amount of gilteritinib was dissolved in 0.5% methylcellulose in DI water to yield a dosing solution at 0.4 mg/mL. Each week, an appropriate amount of venetoclax was dissolved in 10% ethanol:30% PEG400:60% phosal 50 propylene glycol to yield a dosing solution at 10 mg/mL. […] Each test mouse received 5×10^6 MOLM-13 cells or 10^7 MV4-11 cells (0.2 mL cell suspension) by tail vein injection. Dosing was initiated three days after tumor cell inoculation, which was designated as Day 1 of the study. NOD/SCID mice (n=9-12/group) were randomized according to body weight and dosed. […] Vehicle was administered both IP and PO. The dosing volume for all treatments was 10 mL/kg, scaled to the weight of each individual animal.
(§3) Animals were monitored individually for an endpoint of moribundity due to progression of the leukemia. Full hind limb paralysis, severe ocular proptosis, or moribundity was considered sufficient for euthanasia due to tumor progression. Moribund animals were defined as sick animals unable to reach food and water. These deaths were classified as death on survival study. The time to endpoint (TTE), in days, was recorded for each mouse that died of its disease or was euthanized due to extensive tumor progression. […] An animal classified as having died from treatment-related (TR) causes was assigned a TTE value equal to the day of death. An animal classified as having died from non-treatment-related (NTR) causes, or used for sampling before endpoint, was excluded from TTE calculations and all further analyses. The median TTE value was calculated for each group. The median TTE of treated mice was expressed as a percentage of the median TTE of the control mice (% T/C), and the increase in life span (ILS) was calculated as: ILS=% T/C−100%, where T=median TTE treated, and C=median TTE control. Thus, if T=C, ILS=0%.
Animals were weighed daily on Days 1-5, then twice per week until the completion of the study. […] Individual body weight loss was monitored as per protocol and any animal that exceeded the limits for acceptable body weight loss was euthanized. Group mean body weight loss also was monitored as per protocol. Dosing was suspended in any group that exceeded the limits for acceptable mean body weight loss. If mean body weight recovered, then dosing may be resumed in that group, but at a lower dosage or less frequent dosing schedule. Acceptable toxicity for the maximum tolerated dose was defined as a group mean body-weight loss of less than 20% during the study and not more than one TR death among ten treated animals. […] A death was classified as NTR if there was no evidence that death was related to treatment side effects or tumor progression. Non-treatment-related deaths may be further characterized based on cause of death. A death may be classified as NTRa if it resulted from an accident or human error. A death may be classified as NTRu if the cause of death is unknown and there is no available evidence of death related to treatment side effects, metastasis, accident or human error, although death due to these etiologies cannot be excluded. Survival was analyzed by the Kaplan-Meier method, based on TTE values. The logrank (Mantel-Cox) and Gehan-Breslow-Wilcoxon tests determined the significance of the difference between the overall survival experiences (survival curves) of two groups, based on TTE values.
These experiments were repeated with a second FLT3-ITD cell line, MOLM-13.

[7] = tested on: MV4-11 xenograft models; experiment: Disseminated MV4-11 xenograft survival study; format: in vivo; details: MV4-11, NCG mice; single agent PO qd×21: venetoclax 100 mg/kg, midostaurin 100 mg/kg; vehicle=29.5
Description: as §1
as §2, with “NOD/SCID mice (n=9-12/group) were randomized according to body weight and dosed.” left out
as §3
Animals were weighed daily on Days 1-5, then twice per week until the completion of the study. […] Individual body weight loss was monitored as per protocol and any animal that exceeded the limits for acceptable body weight loss was euthanized. Group mean body weight loss also was monitored as per protocol. Dosing was suspended in any group that exceeded the limits for acceptable mean body weight loss. If mean body weight recovered, then dosing may be resumed in that group, but at a lower dosage or less frequent dosing schedule. […] Survival was analyzed by the Kaplan-Meier method, based on TTE values. The logrank (Mantel-Cox) and Gehan-Breslow-Wilcoxon tests determined the significance of the difference between the overall survival experiences (survival curves) of two groups, based on TTE values.

[8] = tested on: engineered BaF3 cell lines expressing either wild-type FLT3, FLT3-ITD or FLT3 (D835Y); experiment: Cell viability and synergy, panel of engineered BaF3 cell lines; format: cell-based; details: Mus musculus, FIG. 10A, read-out: EC50 (resistant to venetoclax)
[9] = tested on: MCL-1; experiment: Western blot of MCL-1 in AML cell lines; format: cell-based; details: MV4-11; 20 μM Z-VAD-FMK for 1 hour before 5-azacytidine for another 16 hours
Description: Lysates were quantified using a bicinchoninic acid (BCA) kit (Piece/Thermo Fisher, Waltham, MA). 20 to 30 μg protein was resolved on a 4-12% SDS-PAGE gel, transferred to PVDF membranes (80V/90 minute by wet-transfer), and blocked with Oddysey TBS blocking buffer for 1 hour and then probed with appropriate primary antibodies overnight at 4° C. using dilution as recommended by manufacturer. Membranes were washed three times for a total of 30 minutes and then incubated with secondary antibodies at room temperature in the dark for 1 hour. After another three washes, Odyssey infrared imaging system and companion software (LI-COR biosciences, Lincoln, NE, USA) were used to scan immunoblot membranes and to quantify band intensity according to the manufacturer's instructions. The ratio of proteins of interest to loading control in treated samples was normalized to the corresponding ratio in untreated cells. Antibodies used for immunoblotting were purchased from the following sources: BCL-2 (sc-7382), MCL1- (sc-819) from Santa Cruz Biotechnology (Dallas, TX, USA, Bim (2819), caspase-3 (9664) from Cell Signaling Technology; beta-Actin (A2228) from Sigma-Aldrich; DNMTI (ab188453) from AbCam; TRDye 680 goat anti-rabbit and IRDye 800 goat anti-mouse secondary antibodies (#925-68073 and #925-32212) were purchased from Li-COR Biosciences (Lincoln, NE).

COc1ccc(-c2c(-c3ccc(C#N)c(F)c3)nc(N3CCC(N)CC3)n(C)c2=O)cc1F [CC-90011, 4-[2-(4-amino-piperidin-1-yl)-5-(3-fluoro-4-methoxy-phenyl)-1-methyl-6-oxo-1,6-dihydro-pyrimidin-4-yl]-2-fluoro-benzonitrile]
change in differentiation markers ([1]; five cell lines: HEL, KG-1, MOLM-13, KG-1a, and NOMO-1): no changes in any of these differentiation markers | cell lines with increased expression of at least one differentiation marker ([1]; number of 22 AML cell lines following CC-90011 treatment): Seventeen | cell lines sensitive to CC-90011 (single agent cytotoxicity) [2]: Eleven

CCc1nc(C(N)=O)c(Nc2ccc(N3CCC(N4CCN(C)CC4)CC3)c(OC)c2)nc1NC1CCOCC1 [Gilteritinib]
EC50 [3]: 4 nM | EC50 [4]: 1.8 nM | EC50 [5]: 1.8 nM | Median survival [6]: 34 days

CO[C@@H]1[C@H](N(C)C(=O)c2ccccc2)C[C@H]2O[C@]1(C)n1c3ccccc3c3c4c(c5c6ccccc6n2c5c31)C(=O)NC4 [Midostaurin]
Median survival [6]: 34 days | Median survival [7]: 57

CC1(C)CCC(CN2CCN(c3ccc(C(=O)NS(=O)(=O)c4ccc(NCC5CCOCC5)c([N+](=O)[O-])c4)c(Oc4cnc5[nH]ccc5c4)c3)CC2)=C(c2ccc(Cl)cc2)C1 [Venetoclax]
EC50 [3]: > 10000 nM | EC50 [4]: > 10000 nM | EC50 [5]: 4330 nM | EC50 [8]: > 1000 nM | Median survival [6]: 29 days | Median survival [7]: 35.5

COC(=O)C[C@H](NC(=O)[C@H](C)NC(=O)[C@@H](NC(=O)OCc1ccccc1)C(C)C)C(=O)CF [Z-VAD-FMK] (Cbz-Val-Ala-Asp(OMe)-CH2F)
effect on MCL-1 degradation by 5-azacytidine [9]: partially ablated
